The term Kd denotes the equilibrium constant for the complex coming apart. Higher therefore signals a looser complex.

Kd data for six compounds are collected here from publication PMC10814857, “Functional Classification and Interaction Selectivity Landscape of the Human SH3 Domain Superfamily” (Cells, 2024).

What all share (assay): Fluorescence polarization SH3 domain-PRP binding
Holding throughout (conditions): FP, 0.2 µM fluorescein-labeled peptide, SH3 domain 0-200 µM, Tris/HCl pH 7.5, 25 °C, quadratic fit
(Polarisation of emitted light reports the rotation of a fluorescent probe.)

The target of experiment [1] is T1, ABL2 SH3 domain (aa 107-167) (Homo sapiens, UniProt P42684).
T1 construct: 107-167; GST (N); made in house; host or cells: Escherichia coli CodonPlus, Rosetta, BL21(DE3)
The method, then:
(§1) The interaction between fluorescein-labeled proline-rich peptides (0.2 µM) and increasing concentrations of SH3 domains (ranging from 0 to 200 µM) was measured in a buffer (containing 30 mM Tris/HCl (pH 7.5), 5 mM MgCl2, and 3 mM DTT at 25 °C) in a total volume of 200 µL using a Fluoromax 4 fluorimeter in polarization mode and a quartz glass fluorescence cuvette (Hellma Ultra-Micro Cuvette 105.250-QS, Thermo Fisher Scientific, Waltham, MA USA). Excitation was performed at 470 nm and emission was measured at 560 nm. Dissociation constants (Kd) were determined by fitting the concentration-dependent binding curve to a quadratic ligand binding equation.
(§2) Fluorescence polarization measurements were performed to determine the binding affinities of SH3 domain–PRP interaction pairs from the dot blot analysis. SH3 proteins were titrated at increasing concentrations against fluorescent PRPs, which were kept at a constant concentration of 0.2 µM. GRB2-2^W193K, which is defective in the binding of PRPs such as RP1, was used as a negative control as previously described. […] The resulting data (Figure S6) allowed the evaluation of equilibrium dissociation constants (Kd) for 45 interactions between the SH3 domains and the PRPs (Figure 2B; Table S6).
(§3) Figure S6. Interactions of the SH3 domains with fluorescent PRPs measured by fluorescence polarization.
(§4) Fluorescent peptides (0.2 µM) were titrated with increasing concentrations of the corresponding SH3 domains.
(§5) GRB2-2W193K, defective in the binding of PRPs such as RP1, was used as a negative control as previously described. The x-axis represents SH3 domain concentrations as GST fusion proteins in µM, while the y-axis represents fluorescence polarization. The equilibrium dissociation constants (Kd) for the respective measurements were determined by fitting the titration curves to a quadratic ligand-binding equation (solid lines). All Kd values are […]
(§6) Error bars are derived from the fitting errors.
(§7) (1 picture or pasted object on this page, not shown here)

The target in experiment [2] is T2, ARHGAP12 SH3 domain (aa 12-74) (Homo sapiens, UniProt Q8IWW6).
T2 construct: 12-74; GST (N); made in house; host or cells: Escherichia coli CodonPlus, Rosetta, BL21(DE3)
T2 sequence (Q8IWW6 12-74): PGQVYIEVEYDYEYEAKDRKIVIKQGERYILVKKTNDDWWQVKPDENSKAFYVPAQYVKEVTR
As to the method: as §1, §2, §3, §4, §5, §6, §7

In experiment [3] the target is T3, CRK-1 SH3 domain (aa 132-192) (Homo sapiens, UniProt P46108).
T3 construct: 132-192; GST (N); made in house; host or cells: Escherichia coli CodonPlus, Rosetta, BL21(DE3)
As to the method:
as §1, §2, §3, §4, §5, §6, §7

Experiment [4] concerns the target T4, ITSN1-2 SH3 domain (aa 913-971) (Homo sapiens, UniProt Q15811).
T4 construct: 913-971; GST (N); made in house; host or cells: Escherichia coli CodonPlus, Rosetta, BL21(DE3)
T4 sequence (Q15811 913-971): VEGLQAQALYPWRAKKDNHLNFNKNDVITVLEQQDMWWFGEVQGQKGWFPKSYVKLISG
The method, then: as §1, §2, §3, §4, §5, §6, §7

For experiment [5], the target named is T5, ARHGEF30 (OBSCN) SH3 domain (aa 5600-5667) (Homo sapiens, UniProt Q5VST9).
T5 construct: 5600-5667; GST (N); made in house; host or cells: Escherichia coli CodonPlus, Rosetta, BL21(DE3)
T5 sequence (Q5VST9 5600-5667): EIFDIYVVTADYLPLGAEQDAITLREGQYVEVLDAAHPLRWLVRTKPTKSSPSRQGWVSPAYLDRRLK
As to the method: as §1, §2, §3, §4, §5, §6, §7

In experiment [6] the target is T6, GRB2-2 SH3 domain (aa 158-215) (Homo sapiens, UniProt P62993).
T6 construct: 158-215; GST (N); made in house; host or cells: Escherichia coli CodonPlus, Rosetta, BL21(DE3)
As to the method: as §1, §2, §3, §4, §5, §6, §7

For experiment [7], the target named is T7, ITSN1-1 SH3 domain (aa 740-806) (Homo sapiens, UniProt Q15811).
T7 construct: 740-806; GST (N); made in house; host or cells: Escherichia coli CodonPlus, Rosetta, BL21(DE3)
T7 sequence (Q15811 740-806): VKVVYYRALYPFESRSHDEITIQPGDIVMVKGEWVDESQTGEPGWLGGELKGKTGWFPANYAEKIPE
The method, then: as §1, §2, §3, §4, §5, §6, §7

The target in experiment [8] is T8, ABI1 SH3 domain (aa 446-505) (Homo sapiens, UniProt Q8IZP0).
T8 construct: 446-505; GST (N); made in house; host or cells: Escherichia coli CodonPlus, Rosetta, BL21(DE3)
The method, then: as §1, §2, §3, §4, §5, §6, §7

The target in experiment [9] is T9, DLG2 SH3 domain (aa 536-606) (Homo sapiens, UniProt Q15700).
T9 construct: 536-606; GST (N); made in house; host or cells: Escherichia coli CodonPlus, Rosetta, BL21(DE3)
T9 sequence (Q15700 536-606): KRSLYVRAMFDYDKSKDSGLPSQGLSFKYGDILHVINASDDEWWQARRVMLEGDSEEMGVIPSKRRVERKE
The method, then: as §1, §2, §3, §4, §5, §6, §7

The target of experiment [10] is T10, ITSN1-3 SH3 domain (aa 1002-1060) (Homo sapiens, UniProt Q15811).
T10 construct: 1002-1060; GST (N); made in house; host or cells: Escherichia coli CodonPlus, Rosetta, BL21(DE3)
T10 sequence (Q15811 1002-1060): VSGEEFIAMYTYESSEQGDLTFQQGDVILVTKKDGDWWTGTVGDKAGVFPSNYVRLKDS
As to the method:
as §1, §2, §3, §4, §5, §6, §7

The target in experiment [11] is T11, GRB2-1 SH3 domain (aa 1-58) (Homo sapiens, UniProt P62993).
T11 construct: 1-58; GST (N); made in house; host or cells: Escherichia coli CodonPlus, Rosetta, BL21(DE3)
As to the method: as §1, §2, §3, §4, §5, §6, §7

In experiment [12] the target is T12, BIN1 SH3 domain (aa 520-593) (Homo sapiens, UniProt O00499).
T12 construct: 520-593; GST (N); made in house; host or cells: Escherichia coli CodonPlus, Rosetta, BL21(DE3)
T12 sequence (O00499 520-593): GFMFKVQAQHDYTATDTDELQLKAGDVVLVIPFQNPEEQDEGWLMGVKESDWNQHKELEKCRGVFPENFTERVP
As to the method: as §1, §2, §3, §4, §5, §6, §7

Several values for one entry are separate records, joined by “and”; a condition that tells them apart may be missing. Identical values can stand only once. Peptide text beside a SMILES is read from it.

T6 sequence (P62993 158-215): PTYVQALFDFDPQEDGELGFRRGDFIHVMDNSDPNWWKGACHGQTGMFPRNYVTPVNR
T3 sequence (P46108 132-192): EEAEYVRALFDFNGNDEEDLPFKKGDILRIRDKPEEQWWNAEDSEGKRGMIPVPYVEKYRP
T1 sequence (P42684 107-167): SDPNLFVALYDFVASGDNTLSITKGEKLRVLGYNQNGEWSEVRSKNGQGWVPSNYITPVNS
T8 sequence (Q8IZP0 446-505): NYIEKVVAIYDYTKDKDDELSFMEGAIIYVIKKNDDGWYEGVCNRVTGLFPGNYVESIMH
T11 sequence (P62993 1-58): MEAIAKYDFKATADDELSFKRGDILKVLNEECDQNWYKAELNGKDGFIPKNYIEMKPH

For the compound `CC[C@H](C)[C@H](NC(=O)[C@H](CCCCN)NC(=O)[C@H](CO)NC(=O)[C@@H]1CCCN1C(=O)[C@H](CO)NC(=O)[C@H](CO)NC(=O)[C@H](CCC(=O)O)NC(=O)[C@H](C)NC(=O)[C@@H]1CCCN1C(=O)[C@H](C)NC(=O)[C@H](CO)NC(=O)[C@H](CCC(=O)O)NC(=O)[C@@H]1CCCN1C(=O)[C@H](CCCNC(=N)N)NC(=O)[C@H](CCCNC(=N)N)NC(=O)[C@H](CCCNC(=N)N)NC(=O)[C@@H]1CCCN1C(=O)[C@@H]1CCCN1C(=O)[C@@H](NC(=O)[C@@H]1CCCN1C(=O)[C@@H]1CCCN1C(=O)[C@@H]1CCCN1C(=O)[C@@H](NC(=O)[C@@H]1CCCN1C(=O)[C@@H](NC(=O)[C@@H](N)CCC(=O)O)C(C)C)C(C)C)C(C)C)C(=O)O` [Peptide P3] (H-EVPVPPPVPPRRRPESAPAESSPSKI-OH), the Kd is above 200 µM in [1]; 13.8 µM in [2]; 12.9 µM in experiment [3]; above 200 µM in [4]; above 200 µM in experiment [5]; 12 µM in experiment [6]. In addition, the Kd in experiment [7] is above 200 µM; in experiment [8] it was above 200 µM; in experiment [9], above 200 µM; in [10], above 200 µM; in experiment [11], 15 µM; in experiment [12] it was above 200 µM.
As for `CC(C)C[C@H](NC(=O)[C@@H]1CCCN1C(=O)[C@@H]1CCCN1C(=O)[C@H](CO)NC(=O)[C@@H]1CCCN1C(=O)[C@H](CC(C)C)NC(=O)[C@H](Cc1c[nH]cn1)NC(=O)[C@@H](N)CCCNC(=N)N)C(=O)N[C@H](C(=O)N[C@@H](CCC(N)=O)C(=O)O)[C@@H](C)O` [Peptide P8] (H-RHLPSPPLTQ-OH; N-terminus and C-terminus assumed), the dissociation constant Kd in [1], in experiment [2], in experiment [3], in experiment [4], in [5] and in [6] was above 200 µM each time. Also, the Kd in experiment [7], in [8], in experiment [9], in experiment [10], in experiment [11] and in experiment [12] was above 200 µM throughout.
Consider `CC(C)C[C@H](NC(=O)[C@@H](NC(=O)[C@@H](N)C(C)C)[C@@H](C)O)C(=O)N1CCC[C@H]1C(=O)N[C@@H](Cc1c[nH]cn1)C(=O)NCC(=O)N1CCC[C@H]1C(=O)N[C@@H](CCCNC(=N)N)C(=O)N[C@@H](CO)C(=O)N[C@@H](C)C(=O)O` [Peptide P2] (H-VTLPHGPRSA-OH), for which the equilibrium dissociation constant (Kd) in [1], in experiment [2], in experiment [3], in experiment [4], in experiment [5] and in experiment [6] was above 200 µM each time. The Kd in experiment [7] is above 200 µM; in experiment [8], 60.7 µM; in experiment [9], above 200 µM; in experiment [10], above 200 µM; in experiment [11] it was above 200 µM; in experiment [12], above 200 µM.
As to `CC(C)[C@H](NC(=O)[C@@H]1CCCN1C(=O)[C@@H]1CCCN1C(=O)[C@H](C)NC(=O)[C@H](CCC(=O)O)NC(=O)[C@H](CS)NC(=O)[C@@H](N)CCCNC(=N)N)C(=O)N1CCC[C@H]1C(=O)N1CCC[C@H]1C(=O)N[C@@H](CCCNC(=N)N)C(=O)N[C@@H](CCCNC(=N)N)C(=O)N[C@@H](CCC(=O)O)C(=O)N[C@@H](CCCNC(=N)N)C(=O)NCC(=O)O` [RP2, reference compound] (H-RCEAPPVPPRRERG-OH), the equilibrium dissociation constant (Kd) in experiment [1] was above 200 µM; in [2], 15.5 µM; in [3], above 200 µM; in [4] it was above 200 µM; in [5], above 200 µM; in [6], 12.9 µM. The Kd in experiment [7] is 11 µM; in experiment [8], above 200 µM; in experiment [9], above 200 µM; in experiment [10] it was above 200 µM; in experiment [11], 20 µM; in experiment [12], 48 µM.
As to `CC[C@H](C)[C@H](N)C(=O)N[C@@H](C)C(=O)NCC(=O)N1CCC[C@H]1C(=O)N1CCC[C@H]1C(=O)N[C@H](C(=O)N1CCC[C@H]1C(=O)N1CCC[C@H]1C(=O)N[C@@H](CCCNC(=N)N)C(=O)N[C@@H](CCC(N)=O)C(=O)N[C@@H](CO)C(=O)O)C(C)C` [Peptide P9] (H-IAGPPVPPRQS-OH), the dissociation constant Kd in [1], in [2], in experiment [3], in experiment [4], in [5] and in [6] was above 200 µM each time. The dissociation constant Kd in experiment [7] was above 200 µM; in [8] it was above 200 µM; in experiment [9], above 200 µM; in experiment [10], above 200 µM; in [11], above 200 µM; in experiment [12], 47 µM.
Consider `C[C@H](N)C(=O)N[C@@H](Cc1ccccc1)C(=O)N[C@@H](Cc1ccccc1)C(=O)N1CCC[C@H]1C(=O)N[C@@H](CC(N)=O)C(=O)N[C@@H](CO)C(=O)N1CCC[C@H]1C(=O)N[C@@H](CO)C(=O)N1CCC[C@H]1C(=O)N[C@@H](Cc1ccccc1)C(=O)N[C@H](C(=O)N1CCC[C@H]1C(=O)N1CCC[C@H]1C(=O)N1CCC[C@H]1C(=O)N1CCC[C@H]1C(=O)N[C@@H](CCC(N)=O)C(=O)N[C@H](C(=O)N1CCC[C@H]1C(=O)N[C@@H](CO)C(=O)N1CCC[C@H]1C(=O)N[C@@H](Cc1c[nH]cn1)C(=O)NCC(=O)N[C@H](C(=O)O)[C@@H](C)O)[C@@H](C)O)[C@@H](C)O` [Peptide P7] (H-AFFPNSPSPFTPPPPQTPSPHGT-OH), for which the Kd was 67.3 µM in [1]; 0.2 µM and < 0.5 µM in experiment [2]; 18.1 µM in experiment [3]; above 200 µM in experiment [4]; 8.9 µM in [5]; above 200 µM in experiment [6]. For the same compound, the Kd in experiment [7] is above 200 µM; in experiment [8], above 200 µM; in experiment [9] it was 58.5 µM; in experiment [10] it was above 200 µM; in [11], above 200 µM; in experiment [12] it was 12 µM.
